Source: patent US10323022B2, “Pyrrolidinyl urea, pyrrolidinyl thiourea and pyrrolidinyl guanidine compounds as TrkA kinase inhibitors” (Array BioPharma Inc., priority 2011, dated 2019)

Molecular target: TrkA (Homo sapiens (Human), UniProt P04629)
Test: TrkA Omnia Assay
Type: biochemical
Conditions: averaged IC50; 20 nM enzyme, 500 μM ATP, 10 μM peptide substrate
In short: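 Continuous fluorescent kinase read-out (ex 360 nm, em 485 nm) over 70 min, with initial rates fitted to 4- or 5-parameter logistic curves for IC50. Final conditions: 500 μM ATP, 10 μM Omnia Tyr Peptide #4, 20 nM TrkA, MOPS pH 7.5 buffer with MgCl2 and Triton X-100; enzyme and compound preincubated 10 min at ambient temperature.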

TrkA, sequence (P04629 33-796): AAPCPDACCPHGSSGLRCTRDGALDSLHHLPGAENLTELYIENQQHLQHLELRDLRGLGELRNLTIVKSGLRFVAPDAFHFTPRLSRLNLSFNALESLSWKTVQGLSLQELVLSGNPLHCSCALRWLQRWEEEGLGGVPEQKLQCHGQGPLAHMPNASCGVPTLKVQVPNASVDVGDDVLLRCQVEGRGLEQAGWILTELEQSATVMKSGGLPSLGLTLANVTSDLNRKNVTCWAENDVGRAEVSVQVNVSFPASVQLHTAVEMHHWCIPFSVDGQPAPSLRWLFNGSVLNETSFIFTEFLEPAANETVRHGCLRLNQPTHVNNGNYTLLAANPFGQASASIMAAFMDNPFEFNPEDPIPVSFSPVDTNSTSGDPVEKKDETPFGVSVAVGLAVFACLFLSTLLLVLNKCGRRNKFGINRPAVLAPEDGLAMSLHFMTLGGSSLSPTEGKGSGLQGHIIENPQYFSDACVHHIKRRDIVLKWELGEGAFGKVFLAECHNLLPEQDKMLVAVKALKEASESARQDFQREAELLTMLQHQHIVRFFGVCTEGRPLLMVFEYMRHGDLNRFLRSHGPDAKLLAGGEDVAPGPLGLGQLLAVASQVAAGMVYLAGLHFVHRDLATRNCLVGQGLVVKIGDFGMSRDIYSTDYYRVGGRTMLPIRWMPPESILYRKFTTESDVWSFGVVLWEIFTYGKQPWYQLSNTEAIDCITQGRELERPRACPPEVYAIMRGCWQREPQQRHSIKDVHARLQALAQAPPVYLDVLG

Row | IC50 | SMILES
1 | 1000 to 10000 nM | CCOc1nn(-c2ccccc2)c(NC(=O)N[C@@H]2CN(CC(O)C(F)(F)F)C[C@H]2c2ccc(F)c(F)c2)c1C (stereo partly drawn) [Example 469, 1-((3S,4R)-4-(3,4-difluorophenyl)-1-(3,3,3-trifluoro-2-hydroxypropyl)pyrrolidin-3-yl)-3-(3-ethoxy-4-methyl-1-phenyl-1H-pyrazol-5-yl)urea]
2 | 100 to 1000 nM | CCOc1nn(-c2ccccc2)c(NC(=O)N[C@@H]2CN(c3ccccc3OC(F)(F)F)C[C@H]2c2ccccc2)c1C [Example 239, 1-(3-ethoxy-4-methyl-1-phenyl-1H-pyrazol-5-yl)-3-((3S,4R)-4-phenyl-1-(2-(trifluoromethoxy)phenyl)pyrrolidin-3-yl)urea]
3 | < 100 nM | Cc1nn(-c2ccccc2)c(NC(=O)N[C@@H]2CN(c3cn[nH]c3)C[C@H]2c2ccc(F)c(F)c2)c1C [Example 224, 1-((3S,4R)-4-(3,4-difluorophenyl)-1-(1H-pyrazol-4-yl)pyrrolidin-3-yl)-3-(3,4-dimethyl-1-phenyl-1H-pyrazol-5-yl)urea]
4 | < 100 nM | COCCN1C[C@@H](NC(=O)Nc2c(C)c(C(F)(F)CO)nn2-c2ccccc2)[C@H](c2ccc(F)c(F)c2)C1 [Example 282, 1-(3-(1,1-difluoro-2-hydroxyethyl)-4-methyl-1-phenyl-1H-pyrazol-5-yl)-3-((3S,4R)-4-(3,4-difluorophenyl)-1-(2-methoxyethyl)pyrrolidin-3-yl)urea]
5 | < 100 nM | Cc1c(Br)nn(-c2ccccc2)c1NC(=O)N[C@H]1CN(CC(F)(F)F)C[C@@H]1c1ccccc1 [Example 520, 1-(3-bromo-4-methyl-1-phenyl-1H-pyrazol-5-yl)-3-((3R,4S)-4-phenyl-1-(2,2,2-trifluoroethyl)pyrrolidin-3-yl)urea]
6 | 100 to 1000 nM | CSCCN1C[C@@H](NC(=O)Nc2c3c(nn2-c2ccccc2)CCC3)[C@H](c2ccccc2)C1 (relative stereo) [Example 183, 1-(trans-1-(2-(methylthio)ethyl)-4-phenylpyrrolidin-3-yl)-3-(2-phenyl-2,4,5,6-tetrahydrocyclopenta[c]pyrazol-3-yl)urea]
7 | < 100 nM | COCCN1C[C@@H](NC(=O)Nc2c(Br)c(-c3ccccc3)nn2-c2ccccc2)[C@H](c2ccc(F)cc2)C1 [Example 428, 1-(4-bromo-1,3-diphenyl-1H-pyrazol-5-yl)-3-((3S,4R)-4-(4-fluorophenyl)-1-(2-methoxyethyl)pyrrolidin-3-yl)urea]
8 | < 100 nM | COCCN1C[C@@H](NC(=O)Nc2c(C)c(-c3ccccc3)nn2-c2ccccc2)[C@H](c2ccc(F)c(F)c2)C1 [Example 328, 1-((3S,4R)-4-(3,4-difluorophenyl)-1-(2-methoxyethyl)pyrrolidin-3-yl)-3-(4-methyl-1,3-diphenyl-1H-pyrazol-5-yl)urea]
9 | < 100 nM | COCCN1C[C@@H](NC(=O)Nc2c(C)c(OC[C@@H](O)C(F)(F)F)nn2-c2ccccc2)[C@H](c2cc(F)cc(F)c2)C1 [Example 367, 1-((3S,4R)-4-(3,5-difluorophenyl)-1-(2-methoxyethyl)pyrrolidin-3-yl)-3-(4-methyl-1-phenyl-3-((R)-3,3,3-trifluoro-2-hydroxypropoxy)-1H-pyrazol-5-yl)urea]
10 | < 100 nM | COCCN1C[C@@H](NC(=O)Nc2c(C)c(OCC(=O)O)nn2-c2ccccc2)[C@H](c2ccc(F)c(F)c2)C1 [Example 540, 2-((5-(3-((3S,4R)-4-(3,4-difluorophenyl)-1-(2-methoxyethyl)pyrrolidin-3-yl)ureido)-4-methyl-1-phenyl-1H-pyrazol-3-yl)oxy)acetic acid]
11 | 100 to 1000 nM | CCOc1nn(-c2ccccc2)c(NC(=O)N[C@@H]2CN(c3ccccc3C)C[C@H]2c2ccccc2)c1C [Example 236, 1-(3-ethoxy-4-methyl-1-phenyl-1H-pyrazol-5-yl)-3-((3S,4R)-1-(2-methylphenyl)-4-phenylpyrrolidin-3-yl)urea]
12 | < 100 nM | COCCN1C[C@@H](NC(=O)Nc2c(C)c(C)nn2-c2ccccc2)[C@H](c2ccc(F)cc2)C1 [Example 129, 1-(3,4-dimethyl-1-phenyl-1H-pyrazol-5-yl)-3-((3S,4R)-4-(4-fluorophenyl)-1-(2-methoxyethyl)pyrrolidin-3-yl)urea]
13 | 100 to 1000 nM | COCCN1C[C@@H](NC(=O)Nc2c(C)c(C(=O)O)nn2-c2ccccc2)[C@H](c2ccc(F)c(F)c2)C1 [Example 458, 5-(3-((3S,4R)-4-(3,4-difluorophenyl)-1-(2-methoxyethyl)pyrroidin-3-yl)ureido)-4-methyl-1-phenyl-1H-pyrazole-3-carboxylic acid]
14 | 100 to 1000 nM | COCCN1C[C@H](NC(=O)Nc2c(C)c(OCCF)nn2-c2ccccc2)[C@@H](c2cncc(F)c2)C1 [Example 340, 1-(3-(2-fluoroethoxy)-4-methyl-1-phenyl-1H-pyrazol-5-yl)-3-((3R,4S)-4-(5-fluoropyridin-3-yl)-1-(2-methoxyethyl)pyrrolidin-3-yl)urea]
15 | < 100 nM | COCCN1C[C@@H](NC(=O)Nc2c(C)c(-c3cn(C)cn3)nn2-c2ccccc2)[C@H](c2ccc(F)c(F)c2)C1 [Example 608, 1-((3S,4R)-4-(3,4-difluorophenyl)-1-(2-methoxyethyl)pyrrolidin-3-yl)-3-(4-methyl-3-(1-methyl-1H-imidazol-4-yl)-1-phenyl-1H-pyrazol-5-yl)urea]

Further lines, the compound ahead of its results:

Row | SMILES | IC50
16 | COCCN1C[C@@H](NC(=O)Nc2c3c(nn2-c2ccncc2)CCC3)[C@H](c2ccccc2)C1 [Example 151, 1-((3S,4R)-1-(2-methoxyethyl)-4-phenylpyrrolidin-3-yl)-3-(2-(pyridin-4-yl)-2,4,5,6-tetrahydrocyclopenta[c]pyrazol-3-yl)urea] | < 100 nM
17 | CCOC(=O)c1nn(-c2ccccc2)c(NC(=O)N[C@@H]2CN(CCOC)C[C@H]2c2ccc(F)c(F)c2)c1C [Example 291, ethyl 5-(3-((3S,4R)-4-(3,4-difluorophenyl)-1-(2-methoxyethyl)pyrrolidin-3-yl)ureido)-4-methyl-1-phenyl-1H-pyrazole-3-carboxylate] | < 100 nM
18 | COCCOC(=O)c1ccc(-c2cc(NC(=O)N[C@@H]3CN(CCOC)C[C@H]3c3ccc(F)c(F)c3)n(C)n2)cc1 [Example 170, 2-methoxyethyl 4-(5-(3-((3S,4R)-4-(3,4-difluorophenyl)-1-(2-methoxyethyl)pyrrolidin-3-yl)ureido)-1-methyl-1H-pyrazol-3-yl)benzoate] | < 100 nM
19 | COCCN1C[C@@H](NC(=O)Nc2c(CO)cnn2-c2ccccc2)[C@H](c2ccc(F)c(F)c2)C1 [Example 175, 1-((3S,4R)-4-(3,4-difluorophenyl)-1-(2-methoxyethyl)pyrrolidin-3-yl)-3-(4-(hydroxymethyl)-1-phenyl-1H-pyrazol-5-yl)urea] | < 100 nM
20 | COCCN1C[C@@H](NC(=O)Nc2c(C)c(OC[C@@H](C)O)nn2-c2ccccc2)[C@H](c2cc(F)cc(F)c2)C1 [Example 366, 1-((3S,4R)-4-(3,5-difluorophenyl)-1-(2-methoxyethyl)pyrrolidin-3-yl)-3-(3-((R)-2-hydroxypropoxy)-4-methyl-1-phenyl-1H-pyrazol-5-yl)urea] | < 100 nM
21 | COCCN1C[C@@H](NC(=O)Nc2c(C)c(OC[C@H](O)COC)nn2-c2ccccc2)[C@H](c2cc(F)c(F)c(F)c2)C1 [Example 565, 1-(3-((R)-2-hydroxy-3-methoxypropoxy)-4-methyl-1-phenyl-1H-pyrazol-5-yl)-3-((3S,4R)-1-(2-methoxyethyl)-4-(3,4,5-trifluorophenyl)pyrrolidin-3-yl)urea] | < 100 nM
22 | COCCN1C[C@@H](NC(=O)Nc2c3c(nn2-c2ccccc2)CSC3)[C@H](c2cc(F)cc(F)c2)C1 [Example 89, 1-((3S,4R)-4-(3,5-difluoro-phenyl)-1-(2-methoxyethyl)pyrrolidin-3-yl)-3-(2-phenyl-4,6-dihydro-2H-thieno[3,4-c]pyrazol-3-yl) urea] | < 100 nM
23 | COCCN1C[C@@H](NC(=O)Nc2c(Cl)c(C(C)(C)C#N)nn2-c2ccccc2)[C@H](c2ccc(F)c(F)c2)C1 [Example 418, 1-(4-chloro-3-(2-cyanopropan-2-yl)-1-phenyl-1H-pyrazol-5-yl)-3-((3S,4R)-4-(3,4-difluorophenyl)-1-(2-methoxyethyl)pyrrolidin-3-yl)urea] | < 100 nM
24 | COCCN1C[C@@H](NC(=O)Nc2c(Cl)c([C@H]3C[C@@H](O)C3)nn2-c2ccccc2)[C@H](c2ccc(F)c(F)c2)C1 [Example 452, 1-(4-chloro-3-(cis-3-hydroxvcyclobutyl)-1-phenyl-1H-pyrazol-5-yl)-3-((3S,4R)-4-(3,4-difluorophenyl)-1-(2-methoxyethyl)pyrrolidin-3-yl)urea] | < 100 nM
25 | COCCN1C[C@@H](NC(=O)Nc2c(C)c(-c3cc(C)nn3C)nn2-c2ccccc2)[C@H](c2ccc(F)c(F)c2)C1 [Example 308, 1-((3S,4R)-4-(3,4-difluorophenyl)-1-(2-methoxyethyl)pyrrolidin-3-yl)-3-(2′,4,5′-trimethyl-1-phenyl-1H,2′H-[3,3′-bipyrazol]-5-yl)urea] | < 100 nM
26 | COCCN1C[C@@H](NC(=O)Nc2cc(-c3ccc(S(C)(=O)=O)cc3)nn2C)[C@H](c2ccc(F)c(F)c2)C1 [Example 166, 1-((3S,4R)-4-(3,4-difluorophenyl)-1-(2-methoxyethyl)pyrrolidin-3-yl)-3-(1-methyl-3-(4-(methylsulfonyl)phenyl)-1H-pyrazol-5-yl)urea] | < 100 nM
27 | COCCN1C[C@@H](NC(=O)Nc2c(Cl)c(OCc3ccccc3)nn2C)[C@H](c2ccc(F)c(F)c2)C1 [Example 539, 1-(3-(benzyloxy)-4-chloro-1-methyl-1H-pyrazol-5-yl)-3-((3S,4R)-4-(3,4-difluorophenyl)-1-(2-methoxyethyl)pyrrolidin-3-yl)urea] | 100 to 1000 nM
28 | COCCN1C[C@@H](NC(=O)Nc2c(Cl)c(OCC(C)(C)O)nn2-c2ccccc2)[C@H](c2ccc(F)c(F)c2)C1 [Example 359, 1-(4-chloro-3-(2-hydroxy-2-methylpropoxy)-1-phenyl-1H-pyrazol-5-yl)-3-((3S,4R)-4-(3,4-difluorophenyl)-1-(2-methoxyethyl)pyrrolidin-3-yl)urea] | < 100 nM
